Patent US20140235588A1, “SUBSTITUTED 1H-PYRAZOL-1,2,4-OXADIAZOLE DERIVATIVES AS SPHINGOSINE RECEPTOR MODULATORS” (Allergan, Inc., priority 2013, published 2014)

Biological target: T1, human S1P1 receptor (Homo sapiens, UniProt P21453)
T1 construct: expressed in transfected cells; membranes used
Experiment: GTP γ35S binding assay for S1P1 activity
Type: biochemical
Details: membranes of cells stably expressing the S1P1 receptor, agonist potency
Experimental: Compounds of the invention were tested for S1P1 activity using the GTP γ^35S binding assay. These compounds may be assessed for their ability to activate or block activation of the human S1P1 receptor in cells stably expressing the S1P1 receptor.
GTP γ^35S binding was measured in the medium containing (mM) HEPES 25, pH 7.4, MgCl2 10, NaCl 100, dithitothreitol 0.5, digitonin 0.003%, 0.2 nM GTP γ^35S, and 5 μg membrane protein in a volume of 150 μl. Test compounds were included in the concentration range from 0.08 to 5,000 nM unless indicated otherwise. Membranes were incubated with 100 μM 5′-adenylylimmidodiphosphate for 30 min, and subsequently with 10 μM GDP for 10 min on ice.
Drug solutions and membrane were mixed, and then reactions were initiated by adding GTP γ^35S and continued for 30 min at 25° C. Reaction mixtures were filtered over Whatman GF/B filters under vacuum, and washed three times with 3 mL of ice-cold buffer (HEPES 25, pH7.4, MgCl2 10 and NaCl 100). Filters were dried and mixed with scintillant, and counted for ^35S activity using a β-counter. Agonist-induced GTP γ^35S binding was obtained by subtracting that in the absence of agonist. Binding data were analyzed using a non-linear regression method. In case of antagonist assay, the reaction mixture contained 10 nM S1P in the presence of test antagonist at concentrations ranging from 0.08 to 5000 nM.

T1 sequence (P21453 whole entry): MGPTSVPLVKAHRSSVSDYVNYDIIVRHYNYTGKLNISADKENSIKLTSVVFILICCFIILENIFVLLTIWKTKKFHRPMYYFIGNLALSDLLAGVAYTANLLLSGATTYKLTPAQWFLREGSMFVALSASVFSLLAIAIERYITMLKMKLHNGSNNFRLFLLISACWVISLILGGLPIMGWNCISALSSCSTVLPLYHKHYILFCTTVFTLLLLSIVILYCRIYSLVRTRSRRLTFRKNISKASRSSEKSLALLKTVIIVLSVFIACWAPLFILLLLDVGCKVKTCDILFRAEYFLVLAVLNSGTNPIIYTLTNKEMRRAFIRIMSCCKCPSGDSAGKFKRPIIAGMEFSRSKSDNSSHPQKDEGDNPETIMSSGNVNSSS

EC50	Compound
32 nM	Cn1nc(-c2nc(-c3ccc(CNCCCP(=O)(O)O)cc3)no2)cc1-c1ccccc1 [Compound 1, [3-({4-[5-(1-Methyl-5-phenyl-1H-pyrazol-3-yl)-1,2,4-oxadiazol-3-yl]benzyl}amino)propyl]phosphonic acid]
658 nM	Cn1nc(-c2nc(-c3ccc(CNCCC(=O)O)cc3)no2)cc1-c1ccccc1 [Compound 2, 3-({4-[5-(1-methyl-5-phenyl-1H-pyrazol-3-yl)-1,2,4-oxadiazol-3-yl]benzyl}amino)propanoic acid]
